Experimental data as given in US6989443B2, “Carboranylporphyrins and uses thereof” (Brookhaven Science Associates, LLC, priority 2004, dated 2006).
Blank lines part the entries; values can stand above or below the compound they belong to.

Assays:
[1] = test system: malignant brain tumors; conditions: in vivo; cited from earlier work
[2] = test system: EMT-6 mammary carcinomas; assay: Biodistribution of porphyrin IX in mice bearing EMT-6 carcinomas (tissue boron analyses); format: in vivo, BALB/c mice; conditions: for Average boron concentration, Blood / Average boron concentration, Brain / Average boron concentration, EMT-6 Tumor / Average boron concentration, Liver: 87 mg/kg (30 mg B/kg) in 3 i.p. injections over 8 hours, n = 5
Protocol: (§1) BALB/c mice bearing subcutaneously implanted EMT-6 mammary carcinomas implanted on the dorsal thorax were given a total dose of 87 milligrams porphyrin compound (IX) per kilogram body weight (30 mg B/kg) in 3 intraperitoneal (i.p.) injections over a period of 8 hours. At two and four days after the last injection, mice were euthanized, and tumor, blood, brain, and liver were removed for boron analyses. The blood was first analyzed for hematologic parameters that indicate toxicity before it was analyzed for boron.

[3] = Weight changes and hematologic parameters from porphyrin (IX) in mice; conditions: for % Weight change / Granulocytes / Lymphocytes / Platelets: median (and range)
Protocol: as §1

[4] = 2 days after last injection, 87 mg/kg (30 mg B/kg)
[5] = 4 days after last injection, 87 mg/kg (30 mg B/kg)

Compound: N[C@@H](Cc1ccc(B(O)O)cc1)C(=O)O [BPA, p-boronophenylalanine]
chemical toxicity [1]: low chemical toxicity

Average boron concentration, Blood ([2]; 2 days after last injection): 0.5 ± 0.2 μg B/g
Average boron concentration, Brain ([2]; 2 days after last injection): 0.2 ± 0.0 μg B/g
Average boron concentration, EMT-6 Tumor ([2]; 2 days after last injection): 43.5 ± 10.0 μg B/g
Average boron concentration, Liver ([2]; 2 days after last injection): 353 ± 55 μg B/g
Average boron concentration, Blood ([2]; 4 days after last injection): 0.2 ± 0.1 μg B/g
Average boron concentration, Brain ([2]; 4 days after last injection): 0.3 ± 0.2 μg B/g
Average boron concentration, EMT-6 Tumor ([2]; 4 days after last injection): 27.8 ± 7.6 μg B/g
Average boron concentration, Liver ([2]; 4 days after last injection): 250 ± 70 μg B/g
tumor to brain boron ratio ([2]; EMT-6 tumor-bearing mice, compared with tumor to blood ratio): even higher
tumor boron concentrations, adequacy for therapy ([2]; particularly at the two-day time-point): adequate for therapy
platelet count compared to solvent-only mice ([3]; 2-day time point): small but significant decrease
% Weight change [3, 4]: 0.4 (−4.9–2.5) %
Granulocytes [3, 4]: 53 (42–60) % WBC
Lymphocytes [3, 4]: 44 (37–56) % WBC
Platelets [3, 4]: 193 (51–432) 10^3/mm^3
% Weight change [3, 5]: −0.6 (−4.7–1.5) %
Granulocytes [3, 5]: 62 (57–67) % WBC
Lymphocytes [3, 5]: 35 (30–39) % WBC
Platelets [3, 5]: 917 (670–1128) 10^3/mm^3
Compound: Copper meso-5,10,15,20-tetrakis[3-(3,5-o-dicarboranyl methoxybenzyloxy)phenyl]porphyrin [Porphyrin compound (IX)]
weight change compared to solvent-injected mice ([3]; 87 mg/kg (30 mg B/kg)): no differences between porphyrin- and solvent-injected mice
platelet count compared to solvent-only group ([3]; 4-day time point): rebounded to a level greater than those from the solvent-only group
